Source: paper PMC9127750, “Structure-based design of CDC42 effector interaction inhibitors for the treatment of cancer” (Cell reports, 2022)
“And” between values parts separate entries of the source, which are not always exact repeats. Equal values may be shown once.

Tested on: WM3248 melanoma cells, 486 antibodies
Test: Reverse phase protein arrays (RPPA);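 as to RPPA ACC1.R.C: ratio of treated to vehicle (0 µM) normalized linear protein signal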;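 as to RPPA AMPK.a2 pS345.R.V: ratio of treated to vehicle (0 µM) normalized linear protein signal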;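 as to RPPA AMPKa pT172.R.C: ratio of treated to vehicle (0 µM) normalized linear protein signal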;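 as to RPPA ASNS.R.V: ratio of treated to vehicle (0 µM) normalized linear protein signal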;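 as to RPPA Akt1.R.V: ratio of treated to vehicle (0 µM) normalized linear protein signal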;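 as to RPPA Atg5.R.C: ratio of treated to vehicle (0 µM) normalized linear protein signal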
Type: cell-based, Human
From the text: Pellets were snap frozen in liquid nitrogen and shipped to MD Anderson Cancer Center core RPPA facility for RPPA analysis (Table S5). Three biological replicates for each sample were generated.
Nomenclatures on the RPPA heatmaps: name_of_antibody.species_of_antibody.status_of_antibody. V - antibody validated; C - validation of antibody in progress; Q - antibody nonspecific; E – under evaluation; antibodies raised in M - mouse, G - goat, R - rabbit, or T - rat.

CN(C)c1cccc(Nc2cc(-c3ccccc3)nc(C3CCNCC3)n2)c1 [ARN22089, N1,N1-dimethyl-N3-(6-phenyl-2-(piperidin-4-yl)pyrimidin-4-yl)benzene-1,3-diamine]
RPPA EGFR_pY1068.R.C (5 uM, single samples): 1.000 and 0.953 and 1.026
RPPA EGFR_pY1173.R.V (5 uM, single samples): 0.975 and 1.083 and 1.079
RPPA EMA.M.C (5 uM, single samples): 1.076 and 0.967 and 1.014
RPPA ENY2.M.C (5 uM, single samples): 0.948 and 0.847
RPPA ER.a.R.V (5 uM, single samples): 0.800 and 1.157 and 1.137
RPPA ER.a_pS118.R.V (5 uM, single samples): 0.923 and 1.516 and 1.141
RPPA ERCC1.R.C (5 uM, single samples): 1.055 and 0.895 and 0.971
RPPA ERCC5.R.C (5 uM, single samples): 1.027 and 0.974 and 0.973
RPPA ERRalpha.R.V (5 uM, single samples): 1.078 and 0.970 and 0.952
RPPA EVI1.R.V (5 uM, single samples): 0.942 and 0.941
RPPA Elk1_pS383.R.C (5 uM, single samples): 0.946 and 1.013 and 1.129
RPPA Enolase.1.R.V (5 uM, single samples): 1.024 and 0.893 and 0.818
RPPA Enolase.2.R.V (5 uM, single samples): 0.995 and 0.946
RPPA EphA2.R.V (5 uM, single samples): 0.776 and 1.046
RPPA EphA2_pS897.R.C (5 uM, single samples): 0.644 and 1.190 and 1.055
RPPA EphA2_pY588.R.C (5 uM, single samples): 0.942 and 0.920
RPPA Erk5.R.V (5 uM, single samples): 1.097 and 1.135
RPPA Ets.1.R.V (5 uM, single samples): 1.185 and 0.950 and 0.594
RPPA FAK.R.C (5 uM, single samples): 0.858 and 1.217 and 0.941
RPPA FAK_pY397.R.V (5 uM, single samples): 1.026 and 0.959 and 1.059
RPPA FANCD2.R.V (5 uM, single samples): 0.883 and 1.063
RPPA FASN.R.V (5 uM, single samples): 1.017 and 0.767
RPPA FGF.basic.R.C (5 uM, single samples): 0.868 and 1.191
RPPA FN14.R.C (5 uM, single samples): 0.857 and 1.226 and 1.168
RPPA FOXM1.R.V (5 uM, single samples): 0.885
RPPA FOXO3.R.V (5 uM, single samples): 0.861 and 0.945 and 1.100
RPPA FRS2.alpha_pY196.R.V (5 uM, single samples): 0.930 and 0.961 and 0.957
RPPA FTO.R.V (5 uM, single samples): 1.124 and 0.945 and 0.752
RPPA FoxO3a_pS318_S321.R.C (5 uM, single samples): 0.918 and 0.939
RPPA G6PD.R.V (5 uM, single samples): 0.943 and 0.965
RPPA GATA3.M.V (5 uM, single samples): 0.797 and 0.715
RPPA GATA6.R.V (5 uM, single samples): 0.919 and 1.005
RPPA GCLC.R.C (5 uM, single samples): 1.024 and 1.110 and 0.894
RPPA GCLM.R.V (5 uM, single samples): 0.926 and 0.954
RPPA GCN5L2.R.V (5 uM, single samples): 0.871 and 1.148
RPPA GGPS1.M.V (5 uM, single samples): 0.934 and 0.780
RPPA GRB2.R.V (5 uM, single samples): 0.928 and 1.049 and 1.170
RPPA GRB7.R.V (5 uM, single samples): 0.960 and 1.157 and 0.957
RPPA GSK.3B.R.C (5 uM, single samples): 1.001 and 1.019
RPPA GSK.3a.b.M.V (5 uM, single samples): 0.936 and 0.817
RPPA GSK.3a.b_pS21_S9.R.V (5 uM, single samples): 0.866 and 1.380 and 0.704
RPPA Gab2.R.V (5 uM, single samples): 1.251 and 0.896 and 0.910
RPPA Gli1.R.C (5 uM, single samples): 1.000 and 0.967
RPPA Gli3.R.C (5 uM, single samples): 0.979 and 1.003 and 0.745
RPPA Glucocorticoid.Receptor.R.V (5 uM, single samples): 1.035 and 1.000 and 1.021
RPPA Glutamate.D1.2.R.V (5 uM, single samples): 0.976 and 0.943 and 0.801
RPPA Glutaminase.R.C (5 uM, single samples): 0.948 and 1.063 and 0.715
RPPA Granzyme.B.R.V (5 uM, single samples): 0.964 and 1.146
RPPA Grp75.R.C (5 uM, single samples): 0.944 and 0.963
RPPA Gys.R.V (5 uM, single samples): 0.967 and 1.080
RPPA Gys_pS641.R.V (5 uM, single samples): 0.994 and 1.246 and 0.822
RPPA H2AX_pS139.R.C (5 uM, single samples): 0.914 and 1.103
RPPA H2AX_pS140.M.C (5 uM, single samples): 1.104 and 0.895 and 0.770
RPPA HER2.M.V (5 uM, single samples): 0.948 and 0.899
RPPA HER2_pY1248.R.V (5 uM, single samples): 0.827 and 1.156
RPPA HER3.R.V (5 uM, single samples): 0.886 and 0.834
RPPA HER3_pY1289.R.C (5 uM, single samples): 0.992 and 0.888
RPPA HES1.R.V (5 uM, single samples): 1.367 and 1.154
RPPA Heregulin.R.V (5 uM, single samples): 0.832 and 1.116 and 1.160
RPPA eEF2K.R.V (5 uM, single samples): 0.918 and 0.788
RPPA eIF4E.R.V (5 uM, single samples): 0.941 and 1.515 and 0.898
RPPA eIF4E_pS209.R.V (5 uM, single samples): 0.935 and 1.281 and 0.858
RPPA eIF4G.R.C (5 uM, single samples): 1.030 and 0.956 and 1.155
RPPA MYH11.R.C Average (10 uM): 1.243
RPPA Myosin.IIa.R.C Average (10 uM): 0.941
RPPA Myosin.IIa_pS1943.R.V Average (10 uM): 1.022
RPPA Myt1.R.C Average (10 uM): 0.989
RPPA N.Cadherin.R.V Average (10 uM): 1.064
RPPA N.Ras.M.V Average (10 uM): 0.991
RPPA NDRG1_pT346.R.V Average (10 uM): 1.015
RPPA NDUFB4.R.V Average (10 uM): 1.035
RPPA NRF2.R.C Average (10 uM): 0.996
RPPA Notch1.R.V Average (10 uM): 1.064
RPPA Notch1.cleaved.R.V Average (10 uM): 0.926
RPPA Notch3.R.C Average (10 uM): 1.098
RPPA Oct.4.R.C Average (10 uM): 1.008
RPPA P.Cadherin.R.C Average (10 uM): 0.973
RPPA PAI.1.M.V Average (10 uM): 1.014
RPPA PAICS.R.C Average (10 uM): 0.920
RPPA PAK1.R.V Average (10 uM): 0.961
RPPA PAK4.R.V Average (10 uM): 1.063
RPPA PAK_pS474_S602_S560.R.V Average (10 uM): 1.085
RPPA PAK_pT423_T402.R.C Average (10 uM): 0.987
RPPA PAR.R.C Average (10 uM): 0.480
RPPA PARG.R.C Average (10 uM): 0.970
RPPA PARP.R.V Average (10 uM): 1.017
RPPA PAX6.R.V Average (10 uM): 1.003
RPPA PCNA.M.C Average (10 uM): 0.987
RPPA PD.1.R.V Average (10 uM): 1.058
RPPA PD.L1.R.C Average (10 uM): 0.976
RPPA PDH.M.V Average (10 uM): 1.031
RPPA PDHA1.R.V Average (10 uM): 0.986
RPPA PDHK1.R.C Average (10 uM): 0.952
RPPA PDK1_pS241.R.V Average (10 uM): 0.942
RPPA PEA.15.R.V Average (10 uM): 0.922
RPPA PERK.R.V Average (10 uM): 1.010
RPPA PGM1.R.V Average (10 uM): 0.998
RPPA PHLPP.R.V Average (10 uM): 1.083
RPPA PI3K.p85.R.C Average (10 uM): 1.062
RPPA PI3K.p110.a.R.C Average (10 uM): 0.904
RPPA PI3K.p110.b.M.C Average (10 uM): 0.987
RPPA PKA.a.R.V Average (10 uM): 0.877
RPPA PKC.a.b.II_pT638_T641.R.V Average (10 uM): 0.910
RPPA PKC.b.II_pS660.R.V Average (10 uM): 1.018
RPPA PKCa.R.V Average (10 uM): 0.991
RPPA PKM2.R.C Average (10 uM): 0.940
RPPA PLC.gamma1.R.V Average (10 uM): 1.083
RPPA PLC.gamma1_pS1248.R.V Average (10 uM): 0.999
RPPA PLK1.R.C Average (10 uM): 0.905
RPPA PR.R.V Average (10 uM): 1.064
RPPA PRAS40.M.C Average (10 uM): 1.049
RPPA PRAS40_pT246.R.V Average (10 uM): 0.957
RPPA Patched.R.C Average (10 uM): 0.971
RPPA Paxillin.R.C Average (10 uM): 0.830
RPPA Pdcd4.R.C Average (10 uM): 0.977
RPPA Porin.M.V Average (10 uM): 1.020
RPPA p21.R.C Average (10 uM): 1.010
RPPA p27.Kip1.R.C Average (10 uM): 1.046
RPPA p27_pT157.R.C Average (10 uM): 1.014
RPPA p27_pT198.R.V Average (10 uM): 1.168
RPPA p38.MAPK.R.V Average (10 uM): 0.975
RPPA p38.a.M.V Average (10 uM): 1.028
RPPA p53.R.C Average (10 uM): 0.908
RPPA p70.S6K1.R.V Average (10 uM): 0.918
RPPA p70.S6K_pT389.R.V Average (10 uM): 0.996
RPPA p90RSK_pT573.R.C Average (10 uM): 1.053
RPPA A.Raf.R.V (10 uM, 10W1): 0.962
RPPA ACC1.R.C (10 uM, 10W1): 1.063
RPPA ACC_pS79.R.V (10 uM, 10W1): 0.772
RPPA ACLY_pS455.R.V (10 uM, 10W1): 1.099
RPPA ACSL1.R.V (10 uM, 10W1): 0.988
RPPA ACVRL1.R.C (10 uM, 10W1): 1.018
RPPA ADAR1.M.V (10 uM, 10W1): 1.194
RPPA ALKBH5.R.V (10 uM, 10W1): 0.984
RPPA AMPK.a2_pS345.R.V (10 uM, 10W1): 1.028
RPPA AMPKa.R.C (10 uM, 10W1): 0.972
RPPA AMPKa_pT172.R.C (10 uM, 10W1): 0.665
RPPA AR.R.V (10 uM, 10W1): 0.830
RPPA ASNS.R.V (10 uM, 10W1): 0.786
RPPA ATM_pS1981.R.V (10 uM, 10W1): 1.131
RPPA ATP5A.M.C (10 uM, 10W1): 0.979
RPPA ATP5H.R.V (10 uM, 10W1): 1.113
RPPA ATRX.R.C (10 uM, 10W1): 1.033
RPPA ATR_pS428.R.C (10 uM, 10W1): 0.934
RPPA AceCS1.R.V (10 uM, 10W1): 0.931
RPPA Akt1.R.V (10 uM, 10W1): 0.892
RPPA Akt1_pS473.R.V (10 uM, 10W1): 0.970
RPPA Akt2.R.V (10 uM, 10W1): 0.959
RPPA Akt2_pS474.R.C (10 uM, 10W1): 1.062
RPPA Akt.R.V (10 uM, 10W1): 0.917
RPPA Akt_pS473.R.V (10 uM, 10W1): 1.128
RPPA Akt_pT308.R.V (10 uM, 10W1): 0.936
RPPA Ambra1_pS52.R.C (10 uM, 10W1): 1.051
RPPA Annexin.I.M.V (10 uM, 10W1): 1.059
RPPA Annexin.VII.M.V (10 uM, 10W1): 1.077
RPPA Atg3.R.V (10 uM, 10W1): 0.970
RPPA Atg4B.R.C (10 uM, 10W1): 0.890
RPPA Atg5.R.C (10 uM, 10W1): 0.920
RPPA Atg7.R.V (10 uM, 10W1): 0.855
RPPA Aurora.A.R.C (10 uM, 10W1): 0.735
RPPA Aurora.ABC_pT288_pT232_pT198.R.C (10 uM, 10W1): 0.857
RPPA Aurora.B.R.V (10 uM, 10W1): 1.102
RPPA Axl.R.V (10 uM, 10W1): 0.724
